Reference: patent publication US20160030407A1, “Method of Treating Inflammatory Lung Disease” (priority 2010, published 2016)
Converted amounts (≈) assume the structure as drawn.

Columns and labels:
[1] = target: nAChR α3/β4 (Homo sapiens, UniProt P30926+P32297); assay: nAChR α3/β4 channel agonist assay (FLIPR); type: cell-based; settings: test conc 1 μM; 100% = 30 μM Ach, 0% = HBPS
Method: (§1) Briefly, cells were incubated with […] dye for 30 min at 37° C.

[2] = target: T1, nAChR α4/β2 (Homo sapiens, UniProt P17787+P43681); assay: nAChR α4/β2 channel agonist assay (FLIPR); type: cell-based; settings: test conc 0.3 μM; 100% = 30 μM Ach, 0% = HBPS
T1 construct: host or cells: HEK293 cells, transient
T1 sequence (P43681 29-627): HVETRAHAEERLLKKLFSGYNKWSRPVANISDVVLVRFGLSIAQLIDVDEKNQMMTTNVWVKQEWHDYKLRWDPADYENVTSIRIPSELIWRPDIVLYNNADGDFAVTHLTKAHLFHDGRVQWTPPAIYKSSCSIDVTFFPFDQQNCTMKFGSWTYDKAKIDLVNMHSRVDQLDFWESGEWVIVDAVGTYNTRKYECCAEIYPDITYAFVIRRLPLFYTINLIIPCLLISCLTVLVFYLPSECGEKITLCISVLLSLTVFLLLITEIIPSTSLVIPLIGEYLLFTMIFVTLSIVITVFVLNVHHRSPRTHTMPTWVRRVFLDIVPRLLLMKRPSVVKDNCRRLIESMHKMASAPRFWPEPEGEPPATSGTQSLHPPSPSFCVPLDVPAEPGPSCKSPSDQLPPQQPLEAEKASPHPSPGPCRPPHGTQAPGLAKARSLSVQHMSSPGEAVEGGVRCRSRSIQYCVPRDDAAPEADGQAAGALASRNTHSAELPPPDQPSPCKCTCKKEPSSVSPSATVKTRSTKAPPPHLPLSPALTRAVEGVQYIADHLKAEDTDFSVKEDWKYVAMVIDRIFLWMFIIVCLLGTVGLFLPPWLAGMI
T1 sequence (P17787 26-502): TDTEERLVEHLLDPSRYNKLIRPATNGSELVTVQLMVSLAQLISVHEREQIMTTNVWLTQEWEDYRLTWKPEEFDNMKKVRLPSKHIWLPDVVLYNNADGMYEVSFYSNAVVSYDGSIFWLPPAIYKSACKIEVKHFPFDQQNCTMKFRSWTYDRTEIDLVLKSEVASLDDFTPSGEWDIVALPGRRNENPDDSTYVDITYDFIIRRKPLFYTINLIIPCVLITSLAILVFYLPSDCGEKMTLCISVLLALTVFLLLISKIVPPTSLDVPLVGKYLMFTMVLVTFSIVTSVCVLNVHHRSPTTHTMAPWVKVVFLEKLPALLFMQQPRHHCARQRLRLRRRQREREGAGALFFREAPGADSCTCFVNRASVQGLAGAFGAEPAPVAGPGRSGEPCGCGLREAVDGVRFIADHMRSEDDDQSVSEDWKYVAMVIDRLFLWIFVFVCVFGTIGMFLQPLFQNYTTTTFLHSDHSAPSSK
Method: as §1

[3] = target: T2, nAChR α7 (Homo sapiens, UniProt P36544); assay: nAChR α7 channel agonist assay (FLIPR); type: cell-based; settings: in presence of PNU-120596, 100% = 30 μM Ach+10 μM PNU-120596, 0% = HBPS
T2 construct: host or cells: CHO cells coexpressing RIC-3
T2 sequence (P36544 23-502): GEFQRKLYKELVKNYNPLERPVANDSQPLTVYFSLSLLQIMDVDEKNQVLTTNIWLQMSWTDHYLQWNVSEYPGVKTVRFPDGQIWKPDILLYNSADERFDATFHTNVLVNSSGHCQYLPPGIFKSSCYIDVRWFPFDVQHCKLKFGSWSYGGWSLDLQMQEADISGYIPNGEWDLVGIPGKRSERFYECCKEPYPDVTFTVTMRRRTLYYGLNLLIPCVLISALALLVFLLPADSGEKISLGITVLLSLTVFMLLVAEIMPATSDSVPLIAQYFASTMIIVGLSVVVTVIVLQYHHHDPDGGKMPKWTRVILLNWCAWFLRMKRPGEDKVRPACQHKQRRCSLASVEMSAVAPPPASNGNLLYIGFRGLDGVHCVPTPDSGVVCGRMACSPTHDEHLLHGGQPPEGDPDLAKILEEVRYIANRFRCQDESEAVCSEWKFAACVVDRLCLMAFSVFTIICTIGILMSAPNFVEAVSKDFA
Method: as §1
Therefore, the assay of agonist activity for either Ach or for the test articles was conducted in the presence of the positive allosteric modulator.

[4] = target: T2, nAChR α7; assay: nAChR α7 channel positive allosteric modulator assay (FLIPR); type: cell-based; settings: with 30 μM Ach, 100% = 30 μM Ach+10 μM PNU-120596, 0% = 30 μM Ach
Method: as §1

[5] = target: T2, nAChR α7; assay: nAChR α7 channel antagonist assay (FLIPR); type: cell-based; settings: with 300 μM Ach+10 μM PNU-120596, control antagonist 10 μM MLA
Method: as §1

[6] = tested on: IL-1β; assay: LPS-induced IL-1β release in whole human blood; type: cell-based; settings: whole human blood + LPS; 16 hours (Example 13)
Method: Whole human blood was treated with LPS to stimulate inflammatory responses. […] The inflammatory molecule IL-1β was measured after 16 hours.

[7] = tested on: NFκB; assay: NFκB luciferase assay (inhibition of TNFα-induced NFκB activity); type: cell-based, Human; settings: Homo sapiens; 20 ng/ml TNFα; HEK293 NFκB luciferase
Method: The smokeless tobacco used in these experiments was plain long-leaf Copenhagen tobacco purchased from a local vendor. Crude extract was extracted with methanol and water and clarified by centrifugation and filtration. The alkaloid extract was prepared from sodium hydroxide and methanol extraction, organic phase separation and purification. All treatment samples were prepared as a function of weight (μg/ml), and all samples were diluted in DMSO.
Human […] kidney cells (HEK293) transfected with an NFκB luciferase reporter were challenged with TNFα for three hours, then samples were applied to the challenged cells.
The effect of S-(−)-anatabine on TNFα-induced NFκB activity in vitro was determined as described in Example 1.

[8] = Treatment of a patient with Hashimoto's thyroiditis; type: in vivo, human; settings: one patient
Text: This example illustrates administering anatabine for treating thyroiditis. A patient had been afflicted with Hashimoto's thyroiditis for approximately 5 years. The patient's condition had advanced to a state where the treating physician recommended a thyroid lobectomy.

[9] = Plasma pharmacokinetics after oral multi-dose anatabine polacrilex; type: in vivo, Sprague-Dawley rats; settings: for t1/2, terminal / AUC0→∞: rat; for t1/2, terminal: after the final dose; for AUC0→∞: males and females combined
Method: This study consisted of two groups of 8 animals each, 4 males and 4 females.
The vehicle was sterile phosphate buffered saline (PBS) (Amresco). […] Two formulations were prepared; one for each of the two treatment groups. The test compound was formulated for each treatment group just prior to the first dose administration and constantly stirred until dosing was completed (Table 37). Four aliquots of each dose level formulation were collected and stored at −80° C.
The animals were weighed prior to dosing and received three doses p.o. of test compound at a volume of 5 mL/kg. Blood was collected via the venus plexus (retro-orbital) into tubes containing (K2) EDTA. No more than 0.5 mL was collected per time point.
Sample preparation. Plasma samples were treated with three volumes of methanol containing internal standard at 1 μM (R,S)-Antabine-2,4,5,6-d4), incubated 10 min at 4° C., and centrifuged. The amount of the test agent in the supernatant was determined by LC/MS/MS.
Analysis. Samples were analyzed by LC/MS/MS using an Agilent 6410 mass spectrometer coupled with an Agilent 1200 high pressure liquid chromatography (HPLC) and a CTC PAL chilled autosampler, all controlled by MassHunter software (Agilent). After separation on a Hydrophilic interaction liquid chromatography (HILIC) HPLC column (Sepax) using an acetonitrile-ammonium acetate/acetic acid gradient system, peaks were analyzed by mass spectrometry (MS) using ESI ionization in multiple reaction monitoring (MRM) mode. MassHunter software was used to calculate the concentration of the test compounds in samples from the peak area using the appropriate calibration curves.
Descriptive statistics were calculated for all pharmacokinetic parameters. Elimination half-lives (t1/2) were calculated by linear regression of logarithmically transformed plasma concentration data for each period between doses and following the final dose.
Total areas under the plasma concentration curves (AUC) and under the first moment curves (AUMC) were calculated using linear trapezoidal summation across all concentration time points as well as for intervals between each dose administration and following the final dose. […] Mean absorption times (MAT) were calculated according to the following relation: […]

[10] = Physical signs after oral multi-dose administration (Example 5); type: in vivo, Sprague-Dawley rats; settings: rat; oral gavage 0.6 or 6.0 mg/kg BW in three divided doses
Text: The physical signs of each animal were monitored following administration of the test compound.

Sequence of nAChR α3/β4 (P32297 32-505): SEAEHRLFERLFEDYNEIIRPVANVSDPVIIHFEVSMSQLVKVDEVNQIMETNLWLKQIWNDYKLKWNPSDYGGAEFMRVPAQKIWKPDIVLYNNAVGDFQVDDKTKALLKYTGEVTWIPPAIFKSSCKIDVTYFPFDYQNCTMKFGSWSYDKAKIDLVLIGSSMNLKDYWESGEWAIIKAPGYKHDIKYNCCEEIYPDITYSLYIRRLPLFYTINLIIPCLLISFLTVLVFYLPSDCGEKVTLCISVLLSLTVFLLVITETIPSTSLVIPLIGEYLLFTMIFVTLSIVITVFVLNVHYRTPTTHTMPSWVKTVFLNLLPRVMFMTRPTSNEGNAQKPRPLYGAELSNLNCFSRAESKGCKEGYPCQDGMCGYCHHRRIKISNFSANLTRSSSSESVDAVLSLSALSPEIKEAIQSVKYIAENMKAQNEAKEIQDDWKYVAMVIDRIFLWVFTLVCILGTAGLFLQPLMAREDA
Sequence of nAChR α3/β4 (P30926 22-498): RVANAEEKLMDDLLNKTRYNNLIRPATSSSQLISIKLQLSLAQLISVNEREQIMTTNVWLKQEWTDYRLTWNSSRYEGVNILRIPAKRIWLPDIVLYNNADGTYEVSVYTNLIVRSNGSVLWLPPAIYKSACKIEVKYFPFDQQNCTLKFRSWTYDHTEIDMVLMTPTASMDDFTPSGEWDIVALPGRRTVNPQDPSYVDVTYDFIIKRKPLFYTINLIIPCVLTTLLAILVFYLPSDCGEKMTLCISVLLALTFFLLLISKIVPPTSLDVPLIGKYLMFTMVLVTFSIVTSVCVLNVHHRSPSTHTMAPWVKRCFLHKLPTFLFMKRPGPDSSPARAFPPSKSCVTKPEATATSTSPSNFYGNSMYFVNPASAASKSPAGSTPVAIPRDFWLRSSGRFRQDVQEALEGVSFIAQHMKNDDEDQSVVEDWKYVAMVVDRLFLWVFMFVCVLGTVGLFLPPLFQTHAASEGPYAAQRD

Molecule: C1=CCC(c2cccnc2)NC1 (racemic) [Anatabine (racemate)]
- Normalized % Activation [1]: −0.01%
- Normalized % Activation [2]: 0.28%
- Normalized % Activation ([3]; test conc 1 μm): 0.34%
- Normalized % Activation ([3]; test conc 3 μm): 0.78%
- Normalized % Potentiation ([4]; test conc 0.3 μm): −0.94%
- Normalized % Potentiation ([4]; test conc 3 μm): −0.82%
- Normalized % Potentiation ([4]; test conc 10 μm): −0.51%
- Normalized % Potentiation ([4]; test conc 30 μm): −0.57%
- Normalized % Potentiation ([4]; test conc 100 μm): −0.64%
- Normalized % Potentiation ([4]; test conc 300 μm): −0.74%
- Normalized % Inhibition ([5]; test conc 0.3 μm): 22.38%
- Normalized % Inhibition ([5]; test conc 1 μm): 22.23%
- Normalized % Inhibition ([5]; test conc 3 μm): 45.19%
- Normalized % Inhibition ([5]; test conc 10 μm): 33.42%
- Normalized % Inhibition ([5]; test conc 30 μm): 22.88%
- Normalized % Inhibition ([5]; test conc 100 μm): 21.99%
- Normalized % Inhibition ([5]; test conc 300 μm): 7.51%
- Normalized % Inhibition ([5]; test conc 1000 μm): 10.84%

Molecule: CC(C)c1c(C(=O)Nc2ccccc2)c(-c2ccccc2)c(-c2ccc(F)cc2)n1CC[C@@H](O)C[C@@H](O)CC(=O)[O-].CC(C)c1c(C(=O)Nc2ccccc2)c(-c2ccccc2)c(-c2ccc(F)cc2)n1CC[C@@H](O)C[C@@H](O)CC(=O)[O-].[Ca+2] [LIPITOR®, reference compound]
- accumulation of IL-1β [6]: had no effect at the dose shown

Molecule: C1=CC[C@@H](c2cccnc2)NC1 [S-(−)-anatabine]
- IC50 [7]: ~330 µg/mL (≈ 2060 µM)

Molecule: anatabine citrate
- inflammation of the thyroid ([8]; about 600 μg tablets 20 times daily, 30 days): reduced to normal levels
- voice distortion associated with thyroiditis ([8]; after an additional 30 days): no longer present

Molecule: anatabine polacrilex
- Cp, min(2) ([9]; females, 6.0 mg/kg BW group): 180 ± 31 ng/mL
- Cp, min, first minimum ([9]; females, 6.0 mg/kg BW group): 51.5 ± 26.0 ng/mL
- t1/2, terminal ([9]; 0.6 mg/kg BW group): 1.79 ± 0.64 h
- AUC0→∞ ([9]; 0.6 mg/kg BW p.o. in three divided doses): 285 ± 77 ng·h/mL
- t1/2, terminal ([9]; 6.0 mg/kg BW group): 4.53 ± 1.77 h
- AUC0→∞ ([9]; 6.0 mg/kg BW p.o. in three divided doses): 3496 ± 559 ng·h/mL
- adverse signs [10]: no adverse signs were observed
